Biological target: T1, STK17B (DRAK2) (Homo sapiens, UniProt O94768)
T1 construct: purchased Thermo Fisher Scientific (Life Technologies) SelectScreen
Assay: SelectScreen LanthaScreen
Format: binding
Conditions: read-out: % displacement
How it was run: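 SelectScreen broad panel; activity (Z'LYTE, Adapta) plus binding formats. ATP: Km app for CSF1R Z'LYTE; 10 for CAMK1 Adapta. Readout = % per kinase.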

T1 sequence (O94768 whole entry): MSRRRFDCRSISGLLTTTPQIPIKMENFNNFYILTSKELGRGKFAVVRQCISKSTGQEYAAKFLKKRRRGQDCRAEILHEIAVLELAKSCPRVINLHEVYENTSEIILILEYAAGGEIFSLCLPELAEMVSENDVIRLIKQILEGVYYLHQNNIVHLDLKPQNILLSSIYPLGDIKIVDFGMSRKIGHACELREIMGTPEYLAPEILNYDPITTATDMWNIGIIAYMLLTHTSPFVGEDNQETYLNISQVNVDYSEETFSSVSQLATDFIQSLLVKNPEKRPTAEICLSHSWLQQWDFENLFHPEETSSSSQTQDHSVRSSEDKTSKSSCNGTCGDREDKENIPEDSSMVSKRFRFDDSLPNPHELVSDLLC

Work on `CN(C(=O)CN1CCOCC1)c1ccc2sc3c(-c4cccc5c(=O)cc(N6CC7CCC(C6)O7)oc45)cccc3c2c1` [NU5455] yielded an inhibition at 1 µM of 2.7%.

From PMC6934184, “Selective DNA-PKcs inhibition extends the therapeutic index of localized radiotherapy and chemotherapy” (The Journal of Clinical Investigation, 2019)
